Source: patent US4233310A, “Antiarteriosclerotic N-(mercaptoacyl)-histidines” (Santen Pharmaceutical Co., Ltd., priority 1976, dated 1980)

Key:
[1] = Hypolipid action in rats fed stock diet (serum and liver lipids); format: in vivo, Wistar strain male rats; settings: 100 mg/kg orally twice a day for one week; for Liver lipid: Cholesterol content / Liver lipid: Phospholipid content / Liver lipid: Triglyceride content / Serum lipid: Cholesterol content / Serum lipid: Phospholipid content / Serum lipid: Triglyceride content: fasted 16 hours, mean ± standard; for Liver lipid: Cholesterol % / Liver lipid: Phospholipid % / Liver lipid: Triglyceride % / Serum lipid: Cholesterol % / Serum lipid: Phospholipid % / Serum lipid: Triglyceride %: % of control (control = 100)
Experimental: (§1) Pharmacological study (Hypolipid action)
(§2) A 2% aqueous solution of N-(mercaptoacetyl)-L-histidine and N-(3-mercaptopropionyl)-L-histidine, previously neutralized to pH 7.0 with sodium hydroxide, was administered orally to Wistar strain male rats at a dose of 100 mg/kg twice a day for one week. After the final administration of the test solution, the rats were fasted for 16 hours. Cholesterol, triglyceride and phospholipid levels in serum and liver were determined. The rats were divided into two groups. One group was fed a stock diet, and the other a 2% cholesterol-containing diet.
Group fed with stock diet

[2] = Hypolipid action in rats fed 2% cholesterol-containing diet (serum and liver lipids); format: in vivo, Wistar strain male rats; settings: 100 mg/kg orally twice a day for one week; for Liver lipid: Cholesterol content / Liver lipid: Phospholipid content / Liver lipid: Triglyceride content / Serum lipid: Cholesterol content / Serum lipid: Phospholipid content / Serum lipid: Triglyceride content: fasted 16 hours, mean ± standard; for Liver lipid: Cholesterol % / Liver lipid: Phospholipid % / Liver lipid: Triglyceride % / Serum lipid: Cholesterol % / Serum lipid: Phospholipid % / Serum lipid: Triglyceride %: % of control (control = 100)
Experimental: as §1, §2
Group fed with cholesterol containing diet

[3] = Acute toxicity (LD50, intraperitoneal); settings: rat, in vivo, ip, 5% solution pH 7.0, 7-day observation, Litchfield-Wilcoxon method
Experimental: ddy Strain male rats, 4 weeks of age, weighing 18-20 g were placed in a room of constant temperature and humidity (24°±1° C., 55+5%) and fed freely a pellet diet (CE-2, made by Clea Japan Inc.) and water for one week. Out of them, rats showing normal growth were selected for the experiment.
N-(3-mercaptopropionyl)-L-histidine was added to physiological saline, and was neutralized to pH 7.0 with 4 N sodium hydroxide a 5% solution of this solution was used as the test solution, being administered intraperitoneally to the rats.

Question: With O=C(CS)N[C@@H](Cc1c[nH]cn1)C(=O)O [Compound 1, N-(mercaptoacetyl)-L-histidine] as the compound, how does the “Liver lipid: Cholesterol content” value [1] read?
Answer: Its value is 19.7 ± 0.8 mg/total liver weight.

Question: And the “Liver lipid: Phospholipid content” value [1]?
Answer: Its value is 175.1 ± 7.3 mg/total liver weight.

Question: What about the “Liver lipid: Triglyceride content” value [1] of the same compound?
Answer: The value was 24.4 ± 2.0 mg/total liver weight.

Question: What about the “Serum lipid: Cholesterol content” value [1] of the same compound?
Answer: Its value is 53.2 ± 1.9 mg/dL.

Question: What about the “Serum lipid: Phospholipid content” value [1] of the same compound?
Answer: Its value is 95.1 ± 3.2 mg/dL.

Question: And the “Serum lipid: Triglyceride content” value [1]?
Answer: Its value is 56.0 ± 5.6 mg/dL.

Question: What about the “Liver lipid: Cholesterol %” value [1] of the same compound?
Answer: The value was 89.5%.

Question: And the “Liver lipid: Phospholipid %” value [1]?
Answer: Its value is 89.7%.

Question: And the “Liver lipid: Triglyceride %” value [1]?
Answer: Its value is 61.5%.

Question: And the “Serum lipid: Cholesterol %” value [1]?
Answer: Its value is 83.6%.

Question: And the “Serum lipid: Phospholipid %” value [1]?
Answer: Its value is 83.9%.

Question: What about the “Serum lipid: Triglyceride %” value [1] of the same compound?
Answer: The value was 65.0%.

Question: And the “Liver lipid: Cholesterol content” value [2]?
Answer: The value was 52.4 ± 3.6 mg/total liver weight.

Question: What about the “Liver lipid: Phospholipid content” value [2] of the same compound?
Answer: The value was 112.6 ± 5.8 mg/total liver weight.

Question: What about the “Liver lipid: Triglyceride content” value [2] of the same compound?
Answer: Its value is 17.0 ± 1.4 mg/total liver weight.

Question: What about the “Serum lipid: Cholesterol content” value [2] of the same compound?
Answer: The value was 269.5 ± 4.8 mg/dL.

Question: And the “Serum lipid: Phospholipid content” value [2]?
Answer: Its value is 178.6 ± 9.8 mg/dL.

Question: And the “Serum lipid: Triglyceride content” value [2]?
Answer: Its value is 81.4 ± 10.2 mg/dL.

Question: And the “Liver lipid: Cholesterol %” value [2]?
Answer: The value was 83.4%.

Question: What about the “Liver lipid: Phospholipid %” value [2] of the same compound?
Answer: Its value is 93.2%.

Question: What about the “Liver lipid: Triglyceride %” value [2] of the same compound?
Answer: The value was 97.7%.

Question: What about the “Serum lipid: Cholesterol %” value [2] of the same compound?
Answer: Its value is 88.7%.

Question: And the “Serum lipid: Phospholipid %” value [2]?
Answer: Its value is 87.8%.

Question: And the “Serum lipid: Triglyceride %” value [2]?
Answer: Its value is 71.6%.

Question: For O=C(CCS)N[C@@H](Cc1c[nH]cn1)C(=O)O [Compound 2, N-(3-mercaptopropionyl)-L-histidine], which “Liver lipid: Cholesterol content” value [1] is on record?
Answer: The value was 18.9 ± 0.4 mg/total liver weight.

Question: And the “Liver lipid: Phospholipid content” value [1]?
Answer: The value was 163.6 ± 1.7 mg/total liver weight.

Question: What about the “Liver lipid: Triglyceride content” value [1] of the same compound?
Answer: Its value is 30.8 ± 4.5 mg/total liver weight.

Question: What about the “Serum lipid: Cholesterol content” value [1] of the same compound?
Answer: The value was 45.4 ± 0.4 mg/dL.

Question: What about the “Serum lipid: Phospholipid content” value [1] of the same compound?
Answer: Its value is 93.4 ± 4.8 mg/dL.

Question: And the “Serum lipid: Triglyceride content” value [1]?
Answer: The value was 49.5 ± 5.5 mg/dL.

Question: And the “Liver lipid: Cholesterol %” value [1]?
Answer: Its value is 85.9%.

Question: What about the “Liver lipid: Phospholipid %” value [1] of the same compound?
Answer: The value was 83.8%.

Question: What about the “Liver lipid: Triglyceride %” value [1] of the same compound?
Answer: The value was 77.6%.

Question: And the “Serum lipid: Cholesterol %” value [1]?
Answer: The value was 71.4%.

Question: What about the “Serum lipid: Phospholipid %” value [1] of the same compound?
Answer: The value was 82.4%.

Question: What about the “Serum lipid: Triglyceride %” value [1] of the same compound?
Answer: Its value is 57.5%.

Question: And the “Liver lipid: Cholesterol content” value [2]?
Answer: The value was 60.3 ± 4.0 mg/total liver weight.

Question: And the “Liver lipid: Phospholipid content” value [2]?
Answer: Its value is 116.4 ± 4.2 mg/total liver weight.

Question: What about the “Liver lipid: Triglyceride content” value [2] of the same compound?
Answer: Its value is 17.1 ± 1.5 mg/total liver weight.

Question: And the “Serum lipid: Cholesterol content” value [2]?
Answer: The value was 246.9 ± 27.8 mg/dL.

Question: And the “Serum lipid: Phospholipid content” value [2]?
Answer: Its value is 173.9 ± 7.0 mg/dL.

Question: And the “Serum lipid: Triglyceride content” value [2]?
Answer: Its value is 79.2 ± 4.9 mg/dL.

Question: What about the “Liver lipid: Cholesterol %” value [2] of the same compound?
Answer: The value was 96.0%.

Question: What about the “Liver lipid: Phospholipid %” value [2] of the same compound?
Answer: The value was 96.4%.

Question: And the “Liver lipid: Triglyceride %” value [2]?
Answer: The value was 98.3%.

Question: And the “Serum lipid: Cholesterol %” value [2]?
Answer: The value was 81.4%.

Question: And the “Serum lipid: Phospholipid %” value [2]?
Answer: The value was 85.5%.

Question: What about the “Serum lipid: Triglyceride %” value [2] of the same compound?
Answer: Its value is 69.7%.

Question: And the LD50 at 168 h [3]?
Answer: Its LD50 at 168 h is 4040 mg/kg.
